# Tested on: Human prostate cancer cell lines (PC-3 cells)
# Experiment: Measurement of cell death-inducing activity (Test Example 1)
# Type: cell-based
# Details: PC-3, 48 h, 48 hours after addition, tested at 10, 1, 0.1, 0.025 and 0.00625 μmol/L, qualitative evaluation of 10 fields, read-out: Concentration showing the cell death-inducing activity (cell death-inducing rate not less than 40%)
# Method in brief: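 PC-3 cells seeded at 1×10^5 cells/well and grown 48 h at 37 °C, 5% CO2, then exposed to compound at 10, 1, 0.1, 0.025 and 0.00625 μmol/L (DMSO control) for a further 48 h. Activity was called where cell death-inducing rate was not less than 40%.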
row,Structure (SMILES),minimal effective concentration [µM]
1,CCc1nc(-c2ccc(C)cc2OC)sc1NC(=O)OCc1ccc2nn(C)cc2c1 [Example 9-365],0.025
2,CCn1nc(-c2ccc(C)cc2OC)cc1COC(=O)Nc1ccc2c(c1)ncn2CC [Example 13-91],0.1
3,CCn1nc(-c2ccccc2OC)cc1NC(=O)OCc1ccc2c(c1)nc1n2CCCC1 [Example 9-264],1
4,Cc1cccnc1-c1nc(C)c(NC(=O)OCc2ccc3c(c2)ncn3C)s1 [Example 9-195],10
5,Cc1nc(-c2cccc(F)c2)sc1NC(=O)OCc1ccc2c(c1)ncn2C [Example 9-44],1
6,COc1cc(Cl)ccc1-c1nc(C)c(C(=O)NN(C)Cc2ccc3c(c2)CCO3)s1 [Example 16-18],1
7,"Cc1cc(/C=N/NC(=O)c2cc(-c3ccc(Cl)cc3)c[nH]2)cc(C)c1O [Example 24-3, 4-(4-Chlorophenyl)-1H-pyrrole-2-carboxylic acid[1-(4-hydroxy-3,5-dimethylphenyl)methylidene]hydrazide]",0.1
8,CCc1ccccc1-c1nc(C)c(NC(=O)OCc2ccc3nn(CC)cc3c2)s1 [Example 9-151],1
9,Cc1cc(F)ccc1-c1nc(C)c(NC(=O)OCc2ccc3nn(C)cc3c2)s1 [Example 9-149],1
10,COc1cc(Cl)ccc1-c1cc(C(=O)N/N=C/c2ccc3c(c2)ncn3C)[nH]n1 [Example 22-10],0.1
11,Cc1ccc(-c2cc(NC(=O)OCc3ccc4c(cnn4C)c3)n(C)n2)c(C)c1 [Example 9-285],0.1
12,"Cc1cccc(-c2c[nH]c(C(=O)N/N=C/c3cc(C)c(O)c(C)c3)c2)c1C [Example 24-1, 4-(2,3-Dimethylphenyl)-1H-pyrrole-2-carboxylic acid [1-(4-hydroxy-3,5-dimethylphenyl)methylidene]hydrazide]",1
13,Cc1ccc(-c2nc(C)c(NC(=O)OCc3ccc4c(c3)nc3n4C(C)CCC3)s2)c(C)c1 (stereo not drawn) [Example 9-118],10
14,COc1cc(Cl)ccc1-c1cc(COC(=O)Nc2ccc3c(c2)nc2n3CCCC2)sn1 [Example 47-7],0.00625
15,"COc1ccc(/C=N/NC(=O)c2oc(-c3ccccc3OC)nc2C)cc1O [Example 26-2, 2-(2-Methoxyphenyl)-4-methyloxazole-5-carboxylic acid[N′-(3-hydroxy-4-methoxylphenyl)methylidene]hydrazide]",10
16,Cc1nc(-c2ccc(F)cc2Cl)sc1NC(=O)OCc1ccc2c(c1)ncn2C [Example 9-47],0.025
17,CCn1nc(-c2ccc(F)cc2OC)cc1NC(=O)OCc1ccc2c(c1)nc1n2CCCC1 [Example 9-266],1
18,Cn1nc(-c2ccc(Cl)cc2Cl)cc1NC(=O)OCc1ccc2c(cnn2C)c1 [Example 9-275],1
19,CCc1nc2cc(COC(=O)Nc3cc(-c4ccc(Cl)cc4OC)nn3C)ccc2n1C [Example 9-242],0.1
20,CCn1nc(-c2ccccc2OC)cc1COC(=O)Nc1ccc2c(c1)nc1n2CCCC1 [Example 13-115],0.1
21,CCn1nc(-c2ccc(C)cc2OC)cc1NC(=O)OCc1ccc2c(c1)nc1n2CCC1 [Example 9-262],0.025
22,Cc1ccc(-c2nc(C)c(COC(=O)Nc3ccc4c(c3)nc3n4CCOC3)s2)c(C)c1 [Example 13-24],0.025

row,Structure (SMILES),minimal effective concentration [µM]
1,Cc1cc(/C=N/NC(=O)c2cc(-c3ccc(Cl)cc3Cl)n[nH]2)cc(C)c1O [Example 21-11],1
2,CCc1nc(-c2ccc(C)cc2C)sc1NC(=O)OCc1ccc2c(c1)nc1n2CCC1 [Example 9-350],0.1
3,COc1ccc(/C=N/NC(=O)c2sc(-c3cccc(Cl)c3C)nc2C)cc1O [Example 23-125],1
4,CCOc1ccc(CN(C)NC(=O)c2sc(-c3ccc(Cl)cc3OC)nc2C)cc1 [Example 16-19],0.1
5,CCn1c(C)nc2cc(COC(=O)Nc3sc(-c4ccccc4OC)nc3C)ccc21 [Example 9-85],1
6,CCc1nc(-c2ccc(Cl)cc2C)sc1NC(=O)OCc1ccc2c(cnn2CC)c1 [Example 9-362],0.025
7,CCc1ccccc1-c1nc(C)c(NC(=O)OCc2ccc3c(cnn3CC)c2)s1 [Example 9-133],0.1
8,CCc1nc(-c2ccc(Cl)cc2C)sc1NC(=O)OCc1ccc2c(c1)ncn2CC [Example 9-345],0.025
9,COc1ccc(-c2nc(C)c(NC(=O)OCc3ccc4c(c3)ncn4C)s2)c(OC)c1 [Example 9-41],0.025
10,CCn1cnc2cc(COC(=O)Nc3cc(-c4ccccc4OC)nn3C)ccc21 [Example 9-215],0.1
11,Cc1nc2cc(COC(=O)Nc3sc(-c4ccc(Cl)cc4C)nc3C)ccc2s1 [Example 37-4],1
12,CCc1nc(-c2ccc(C)cc2OC)sc1NC(=O)OCc1ccc2c(c1)ncn2C [Example 9-344],0.00625
13,CCc1nc(-c2ccc(F)cc2C)sc1NC(=O)OCc1ccc2ncsc2c1 [Example 36-5],10
14,CCc1nc(-c2ccccc2OC)sc1NC(=O)OCc1ccc2c(c1)ncn2C [Example 9-161],0.025
15,"CCN(Cc1ccc(OC)cc1)NC(=O)c1cc(-c2ccc(Cl)cc2OC)ns1 [Example 19-2, 3-(4-Chloro-2-methoxyphenyl)isothiazole-5-carboxylic acid N′-(4-methoxybenzyl)-N′-ethyl hydrazide]",10
16,"COc1cc(Cl)ccc1-c1nc(C)c(NC(=O)OCc2ccc3c(c2)nc2n3CCN(C)C2)s1 [Example 38-1, [2-(4-Chloro-2-methoxyphenyl)-4-methylthiazol-5-yl]carbamic acid 2-methyl-1,2,3,4-tetrahydrobenzo[4,5]imidazo[1,2-a]pyrazin-8-ylmethyl ester]",1
17,COc1cc(Cl)ccc1-c1cc(COC(=O)Nc2ccc3c(cnn3C)c2)n(C)n1 [Example 13-127],0.1
18,COc1cc(C)ccc1-c1nc(C)c(NC(=O)OCc2ccc3c(c2)ncn3C)s1 [Example 9-40],0.00625
19,CCn1nc(-c2ccc(Cl)cc2OC)cc1NC(=O)OCc1ccc2c(c1)nc1n2CCC1 [Example 9-259],0.025
20,COc1ccc(/C=N/NC(=O)c2sc(-c3ccc(C)cc3C)nc2C)cc1O [Example 23-44],0.1
21,CCc1nc(-c2ccc(C)cc2OC)sc1NC(=O)OCc1ccc2c(c1)nc1n2CCCC1 [Example 9-353],0.1
22,COc1ccc(CN(C)NC(=O)c2sc(-c3ccc(Cl)cc3C)nc2C)cc1O [Example 16-25],0.1

row,Structure (SMILES),minimal effective concentration [µM]
1,CCn1cc2cc(COC(=O)Nc3sc(-c4ccccc4OC)nc3C)ccc2n1 [Example 9-152],0.1
2,COc1ccccc1-c1cc(COC(=O)Nc2ccc3c(c2)nc2n3CCCC2)n(C)n1 [Example 13-114],0.1
3,CCn1cnc2cc(NC(=O)OCc3cc(-c4ccccc4OC)ns3)ccc21 [Example 47-10],10
4,COc1ccc(/C=N/NC(=O)c2sc(-c3cccc(C)c3C)nc2C)cc1O [Example 23-22],1
5,CCn1ncc2cc(NC(=O)OCc3sc(-c4ccc(F)cc4C)nc3C)ccc21 [Example 13-44],0.1
6,Cc1ccccc1-c1ncc(C(=O)N/N=C/c2ccc3c(c2)OCO3)s1 [Example 23-52],1
7,CCc1nc(-c2ccc(C)cc2OC)sc1NC(=O)OCc1ccc2c(c1)ncn2CC [Example 9-165],0.00625
8,COc1ccccc1-c1nc(C)c(NC(=O)OCc2ccc(SC)cc2)s1 [Example 9-5],10
9,Cc1cc(Cl)ccc1-c1nc(C)c(NC(=O)OCc2ccc3c(c2)ncn3C)s1 [Example 9-49],0.00625
10,CCn1nc(-c2ccc(F)cc2OC)cc1NC(=O)OCc1ccc2c(c1)ncn2C [Example 9-218],0.025
11,COc1cc(F)ccc1-c1cc(COC(=O)Nc2ccc3c(c2)nc2n3CCCC2)n(C)n1 [Example 13-116],0.025
12,CCCOc1ccccc1-c1nc(C)c(C(=O)N/N=C/c2cc(C)c(O)c(C)c2)s1 [Example 23-55],1
13,Cc1cc(Cl)ccc1-c1nc(C)c(C(=O)NN(C)Cc2ccc3c(ccn3C)c2)s1 [Example 17-2],0.025
14,COc1cc(F)ccc1-c1cc(COC(=O)Nc2ccc3c(cnn3C)c2)n(C)n1 [Example 13-125],1
15,COc1cc(Cl)ccc1-c1cc(NC(=O)OCc2ccc3c(c2)nc(C)n3C)n(C)n1 [Example 9-239],0.025
16,CCc1nc(-c2ccc(Cl)cc2OC)sc1NC(=O)OCc1ccc2c(c1)nc1n2CCCC1 [Example 9-172],0.025
17,COc1ccc(CN(C)NC(=O)c2sc(-c3ccc(F)cc3F)nc2C)cc1F [Example 16-21],1
18,Cc1ccccc1-c1cc(NC(=O)OCc2ccc3c(c2)nc(C)n3C)n(C)n1 [Example 9-238],10
19,CCc1nc(-c2ccc(Cl)cc2OC)sc1NC(=O)OCc1ccc2c(c1)nnn2CC [Example 9-160],0.025
20,Cc1ccc(-c2nc(C)c(COC(=O)Nc3ccc4c(c3)nc3n4CCCC3)s2)c(C)c1 [Example 13-33],0.1
21,"COc1ccc(CN(C)NC(=O)c2sc(-c3ccc(Cl)cc3OC)nc2C)cc1 [Example 16-1, 2-(4-Chloro-2-methoxyphenyl)-4-methylthiazole-5-carboxylic acid N′-(4-methoxybenzyl)-N′-methyl hydrazide]",0.1
22,CCn1cnc2cc(COC(=O)Nc3sc(-c4ccc(C)cc4C)nc3C)ccc21 [Example 9-62],0.00625

# From US9200008B2 (ASKA PHARMACEUTICAL CO., LTD., priority 2010, dated 2015)
